Source: patent US20250345332A1, “APROCITENTAN FOR THE TREATMENT OF HYPERTENSION” (IDORSIA PHARMACEUTICALS LTD, priority 2022, published 2025)

Experiments:
[1] = tested on: patients with resistant hypertension; assay: PRECISION phase 3 trial: trough unattended automated office blood pressure (uAOBP); assay type: in vivo, human; conditions: for office SBP at 4 weeks, difference versus placebo (SE): part 1 (primary endpoint); for least square mean (SE) change in office SBP at 4 weeks: part 1, on standardized background therapy; for office DBP decrease compared with placebo: week 4, part 1
Protocol: (§1) A single, randomized study with three sequential treatment parts was designed. The study design addressed both the 4-week placebo-controlled efficacy of 12.5 and 25 mg aprocitentan (Part 1) and the durability of its effects in long-term active treatment with 25 mg aprocitentan for a further 32 weeks (Part 2) followed by a 12-week placebo-controlled withdrawal period with patients re-randomized to 25 mg or placebo (Part 3) (see for example Danaietash P et al; Identifying and treating resistant hypertension in PRECISION—a randomized long-term clinical trial with Aprocitentan. J Clin Hypertension 2022 (in press). Patients with uncontrolled BP (measured as unattended automated office BP) despite the use of three or more antihypertensive medications for at least 1 year were screened. They were switched to a single-tablet triple fixed combination antihypertensive therapy for at least 4 weeks before entering a single-blind placebo run-in period. The 4-week placebo run-in period further excluded placebo responders. The randomization period consisted of 3 sequential parts: • 1) a 4-week double-blind part with aprocitentan 12.5 mg, 25 mg, or placebo (1:1:1 ratio); • 2) a 32-week single-blind part with aprocitentan 25 mg; and • 3) a 12-week randomized withdrawal part with aprocitentan 25 mg or placebo (1:1 ratio).
The standardized byckground treatment (SBT) is a single-tablet triple fixed combination of a CCB (amlodipine), an ARB (valsartan), and a diuretic (hydrochlorothiazide); two dose strengths are available: 5/160/25 mg and 10/160/25 mg, respectively. The maximum tolerated dose strength is selected at the investigator's discretion during the treatment period of the study and must be kept stable for at least 1 week prior to randomization continuing through the end of the DB part and again during the DB-WD part. Patients who are treated with a β-blocker at screening will continue their treatment throughout the study.
Study treatment and SBT are to be taken every morning except on the morning of study visit days, where treatment is administered after the completion of the visit assessments and the measurement of BP.
Trough uAOBP is measured at each visit with the same automated oscillometric sphygmomanometer (Microlife® WatchBP Office), which records 5 sitting BP readings (one per minute, first value excluded from the average), with the patient resting undisturbed, alone (unattended) in a quiet place for 5 minutes.
(§2) • Part 1: Double-blind, randomized parallel-group and placebo-controlled and lasts for 4 weeks. Subjects received (1:1:1 ratio), 25 or 12.5 mg aprocitentan, or placebo. • Part 2: Single-blind and single-arm, lasts for 32 weeks. All subjects received aprocitentan 25 mg. • Part 3: Double-blind withdrawal. All subjects completing part 2 and entering part 3 are re-randomized (1:1 ratio) to either aprocitentan 25 mg or placebo.
The primary efficacy endpoint is the change from baseline to Week 4 of DB treatment in mean trough SiSBP measured as uAOBP, where baseline is defined as the last available measurement before the start of DB treatment. […]
(§3) Other secondary efficacy endpoints include • changes from baseline to Week 4 and from DB-WD baseline to Week 40 in mean trough sitting diastolic blood pressure (SiDBP) measured as uAOBP. • and changes in systolic/diastolic BP measured by ABPM, including changes from baseline to Week 4 of DB treatment in 24-h mean SBP and DBP, changes from baseline to Week 4 in daytime and night-time mean SBP and DBP, changes from DB-WD baseline (Week 36) to Week 40 in 24-h mean SBP and DBP, and changes from DB-WD baseline (Week 36) to Week 40 in daytime and night-time mean SBP and DBP.

[2] = tested on: patients with resistant hypertension; assay: PRECISION phase 3 trial: ambulatory blood pressure monitoring (ABPM); assay type: in vivo, human; conditions: for 24 h ambulatory DBP, placebo-corrected decrease / 24 h ambulatory SBP, placebo-corrected decrease: end of part 1 (week 4)
Protocol: as §1
ABPM is performed over a 24-hour period with the Mobil-O-Graph NG device at baseline, and Weeks 4, 36, and 40. Systolic BP and diastolic BP are measured every 20 minutes from 06:00-23:00 and every 30 minutes from 23:00-06:00. Monitoring is initiated between 06:00 and 11:00.
as §2, §3

[3] = tested on: patients with resistant hypertension; assay: PRECISION phase 3 trial: safety assessments; assay type: in vivo, human; conditions: for tolerability: 12.5 mg and 25 mg, up to 48 weeks; for treatment-emergent adverse events (TEAEs), patients: 4-week double-blind period, placebo 19.4%; for edema/fluid retention, patients: 4-week part 1, placebo 2.1%; for discontinuation from study treatment due to an adverse event: first 4 weeks double-blind, placebo 0.8%; for estimated plasma volume increase: placebo 0.51%
Protocol: as §1, §2
Safety assessments include (treatment emergent) adverse events (TEAEs) including TEAEs leading to premature discontinuation of study treatment; adverse events of special interest (AESIs): hepatic disorders, anemia (or hemodilution), edema/fluid retention, and decompensation/aggravation of heart failure; treatment-emergent major adverse cardiovascular events (MACEs)/MACE-plus defined as cardiovascular death, non-fatal myocardial infarction (MI), or non-fatal stroke, or hear filure leading to hospitalization confirmed by the Central Adjudication Committee (CAC); as well as vital signs, body weight, clinical laboratory assessments, and 12-lead electrocardiograms.

[4] = tested on: rat models of hypertension; conditions: cited from earlier work
[5] = in comparison to corresponding alkylated derivatives; cited from earlier work
[6] = subjects with CKD stage 3-4, baseline to Week 4
[7] = Black or African Americans, baseline to Week 4
[8] = part 3, after 4 weeks of withdrawal (week 40), aprocitentan 25 mg

NS(=O)(=O)Nc1ncnc(OCCOc2ncc(Br)cn2)c1-c1ccc(Br)cc1 [aprocitentan, {5-(4-bromo-phenyl)-6-[2-(5-bromo-pyrimidin-2-yloxy)-ethoxy]-pyrimidin-4-yl}-sulfamide]
office SBP at 4 weeks, difference versus placebo (SE) ([1]; aprocitentan 12.5 mg): statistically significant and clinically meaningful reduction | least square mean (SE) change in office SBP at 4 weeks ([1]; aprocitentan 12.5 mg): −15.3 (0.9) mm Hg | office DBP decrease compared with placebo ([1]; aprocitentan 12.5 mg): −3.9 mm Hg | office blood pressure reduction from baseline during part 2 ([1]; aprocitentan 25 mg, 32-week single-blind part 2, patients previously on aprocitentan): maintained | office SBP at 4 weeks, difference versus placebo (SE) ([1]; aprocitentan 25 mg): statistically significant and clinically meaningful reduction | least square mean (SE) change in office SBP at 4 weeks ([1]; aprocitentan 25 mg): −15.2 (0.9) mm Hg | office DBP decrease compared with placebo ([1]; aprocitentan 25 mg): −4.5 mm Hg | office DBP increase with placebo compared with aprocitentan ([1]; part 3, after 4 weeks of withdrawal, aprocitentan 25 mg): 5.2 mm Hg | difference 25 mg versus 12.5 mg in LS mean reduction, primary endpoint SiSBP [1, 6]: up to −5.88 mmHg | further decrease in SiSBP with 25 mg compared with 12.5 mg [1, 6]: 44% | difference 25 mg versus 12.5 mg in LS mean BP reduction with ABPM (night-time SBP) [2, 7]: up to −5.90 mmHg | further decrease in night-time SBP with 25 mg compared to 12.5 mg [2, 7]: > 100% | 24 h ambulatory DBP, placebo-corrected decrease ([2]; aprocitentan 12.5 mg): −4.3 mm Hg | 24 h ambulatory SBP, placebo-corrected decrease ([2]; aprocitentan 12.5 mg): −4.2 mm Hg | placebo-corrected SBP lowering effect during the daytime ([2]; aprocitentan 12.5 mg, week 4): −3.8 mm Hg | placebo-corrected SBP lowering effect during the night time ([2]; aprocitentan 12.5 mg, week 4): −5.1 mm Hg | 24 h ambulatory DBP, placebo-corrected decrease ([2]; aprocitentan 25 mg): −5.8 mm Hg | 24 h ambulatory SBP, placebo-corrected decrease ([2]; aprocitentan 25 mg): −5.9 mm Hg | placebo-corrected SBP lowering effect during the daytime ([2]; aprocitentan 25 mg, week 4): −5.3 mm Hg | 24 h ambulatory DBP increase with placebo compared with aprocitentan [2, 8]: 6.8 mm Hg | 24 h ambulatory SBP increase with placebo compared with aprocitentan [2, 8]: 6.5 mm Hg | tolerability [3]: generally well tolerated | tolerability ([3]; listed as Aprocitentan): generally well tolerated | treatment-emergent adverse events (TEAEs), patients ([3]; aprocitentan 12.5 mg): 27.6% | edema/fluid retention, patients ([3]; aprocitentan 12.5 mg): 9.1% | discontinuation from study treatment due to an adverse event ([3]; aprocitentan 12.5 mg): 2.5% | estimated plasma volume increase ([3]; aprocitentan 12.5 mg, part 1): 10.5% | haemoglobin concentration change ([3]; aprocitentan 12.5 mg, part 1, placebo −0.4): -8.0 g/L | treatment-emergent adverse events (TEAEs), patients ([3]; aprocitentan 25 mg): 36.7% | edema/fluid retention, patients ([3]; aprocitentan 25 mg): 18.4% | oedema or fluid retention, patients ([3]; aprocitentan 25 mg, 12-week part 3, placebo 1.3%): 2.6% | oedema or fluid retention, patients ([3]; aprocitentan 25 mg, 32-week part 2): 18.2% | discontinuation from study treatment due to an adverse event ([3]; aprocitentan 25 mg): 2.0% | admission to hospital for heart failure, patients ([3]; aprocitentan 25 mg, part 1 (two of 245)): 0.8% | patients who discontinued due to oedema or fluid retention ([3]; aprocitentan 25 mg, part 1, of 245 patients): one | estimated plasma volume increase ([3]; aprocitentan 25 mg, part 1): 11.2% | admission to hospital for heart failure, patients ([3]; aprocitentan 25 mg, part 2 (six of 704)): 0.9% | patients who discontinued due to oedema or fluid retention ([3]; aprocitentan 25 mg, part 2, of 704 patients): five | admission to hospital for heart failure, patients ([3]; aprocitentan 25 mg, part 3 (two of 310), placebo 0.3%): 0.6% | patients who discontinued due to oedema or fluid retention ([3]; aprocitentan 25 mg, part 3, of 310 patients): one | patients who discontinued treatment due to edema/fluid retention ([3]; aprocitentan 25 mg, parts 1-3, <1%): seven | bodyweight ([3]; both aprocitentan doses, part 1, decrease with placebo): moderate increase | serious edema/fluid retention adverse events ([3]; both on aprocitentan 25 mg, <1%): Two | edema/fluid retention events mild to moderate in intensity ([3]; entire study duration): > 95% | patients who developed edema/fluid retention at one time point ([3]; entire study duration): Approximately 30% | hepatotoxicity ([3]; in vivo): No signs | NT-proBNP and MR-proANP ([3]; part 1, stabilisation in part 2, reversal in part 3): Slight increases | eGFR ([3]; part 1 versus placebo): decreased slightly | decrease of hemoglobin value from baseline to week 36 ([3]; preliminary data, subjects with SGLT-2 inhibitor plus standardized antihypertensive background therapy, small sample size): smaller decrease | pharmacological effect in combination with ACE inhibitors such as enalapril ([4]; in certain models): synergistic | pharmacological effect in combination with angiotensin receptor blockers such as valsartan ([4]; rat, in vivo): synergistic | pharmacological effect in combination with calcium channel blockers such as amlodipine ([4]; rat, in vivo): additive | clearance in vivo [5]: much shorter | half-life in vivo [5]: much longer
